Data from US8575168B2, “Compounds and compositions as modulators of GPR119 activity” (IRM LLC, priority 2009, dated 2013).

What follows are compounds tested against T1, human GPR119 (Homo sapiens, UniProt Q8TDV5) (assay: Cyclic AMP Assay in Stable Cell Line (HTRF)). Settings: Flp-In-CHO-hGPR119 cells, intracellular cAMP, 30 minutes at 37° C., 1 mM IBMX.
T1 construct: expressed in transfected cells
T1 sequence (Q8TDV5 1-335): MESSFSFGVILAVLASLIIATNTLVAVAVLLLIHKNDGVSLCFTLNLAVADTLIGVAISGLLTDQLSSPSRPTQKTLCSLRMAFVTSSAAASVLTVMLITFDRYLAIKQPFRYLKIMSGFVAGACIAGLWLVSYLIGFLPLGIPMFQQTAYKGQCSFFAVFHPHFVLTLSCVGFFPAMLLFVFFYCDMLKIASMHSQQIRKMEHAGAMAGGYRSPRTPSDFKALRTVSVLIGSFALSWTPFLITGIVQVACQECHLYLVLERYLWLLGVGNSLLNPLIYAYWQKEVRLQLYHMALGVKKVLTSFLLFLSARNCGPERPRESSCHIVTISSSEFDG
Assay type: cell-based
Procedure: Flp-In-CHO cells (Invitrogen, Cat. #R758-07) are maintained in Ham's F12 medium supplemented with 10% fetal bovine serum, 1% antibiotic mixture and 2 mM L-glutamine. The cells are transfected with a DNA mixture containing human GPR119 in pcDNA5/FRT vector and the pOG44 vector (1:9) using Fugene6 (Roche), according to the manufacturer's instruction. After 48 hours, the medium is changed to medium supplemented with 400 μg/ml hygromycin B to initiate the selection of stably transfected cells.
To test the activity of compounds of the invention, Flp-In-CHO-hGPR119 cells are harvested and resuspended in DMEM plus 3% lipid-depleted fetal bovine serum. Forth μl of cells are plated in 384 well plates at a density of 15,000 cells/well. IBMX (3-isobutyl-1-methyl-xanthine) is added to the cells to a final concentration of 1 mM, followed by the addition of 500 nl of the compound to be tested. The cells are incubated at 37° C. for 30 minutes. Equal volume (20 μl) of the HTRF reagents, anti-cAMP-Cryptate and cAMP-XL665, are added to the cells. The plates are incubated at room temperature for 1 hour and read on a HTRF reader according to the manufacturer's instruction.
`CS(=O)(=O)N1CCC(c2cc(F)c(OC3CN(Cc4ncc(C(F)(F)F)cn4)C3)c(F)c2)CC1` [Example A27] showed an EC50 of 764 nM.
Work on `O=C(N1CC=C(c2cc(F)c(OC3CN(Cc4ccc(C(F)(F)F)cc4)C3)c(F)c2)CC1)C(F)(F)F` [Example A35] yielded an EC50 of 688 nM.
In the case of `CS(=O)(=O)N1CCC(c2cc(F)c(OC3CN(Cc4cccc5ccccc45)C3)c(F)c2)CC1` [Example A31], the EC50 is reported as 652 nM.
`Cn1nc(C(F)(F)F)cc1CN1CC(Oc2c(F)cc(C3CCN(S(C)(=O)=O)CC3)cc2F)C1` [Example B15] showed an EC50 of 97 nM.
Compound `Cn1nc(C(F)(F)F)nc1CN1CC(Oc2c(F)cc(C3CCN(S(C)(=O)=O)CC3)cc2F)C1` [Example B21] has an EC50 of 244 nM.
For `CCCS(=O)(=O)N1CCN(c2ccc(OC3CN(Cc4ccc(C(F)(F)F)cc4)C3)cn2)C(=O)C1` [Example A20], the EC50 was 9 nM.
`CC(C)c1ccc(CN2CC(Oc3ccc(N4CCN(S(C)(=O)=O)CC4=O)nc3)C2)cc1` [Example A18] was tested, and the EC50 was 11 nM.
`CS(=O)(=O)N1CCN(c2ccc(OC3CN(Cc4ccc(OC(F)(F)F)cc4)C3)cn2)CC1` [Example A8] gave an EC50 of 70 nM.
In the case of `CC(C)c1ccc(CN2CC(Oc3ccc(N4CCN(S(C)(=O)=O)CC4)nc3)C2)cc1` [Example A1, 1-(5-(1-(4-isopropylbenzyl)azetidin-3-yloxy)pyridin-2-yl)-4-(methylsulfonyl)piperazine], the EC50 is reported as 118 nM.
For `CS(=O)(=O)N1CCN(c2cnc(OC3CCN(Cc4nc(C(F)(F)F)no4)CC3)cn2)CC1` [Example B4, 5-((4-(5-(4-(Methylsulfonyl)piperazin-1-yl)pyrazin-2-yloxy)piperidin-1-yl)methyl)-3-(trifluoromethyl)-1,2,4-oxadiazole], the EC50 was 757 nM.
Compound `CS(=O)(=O)N1CCN(c2cnc(OC3CN(Cc4ccc(OC(F)(F)F)cc4)C3)cn2)C(=O)C1` [Example A4, 4-(methylsulfonyl)-1-(5-(1-(4-(trifluoromethoxy)benzyl)azetidin-3-yloxy)pyrazin-2-yl)piperazin-2-one] has an EC50 of 12 nM.
With `CS(=O)(=O)N1CCC(c2cc(F)c(OC3CN(C(CO)c4ccc(C(F)(F)F)cc4)C3)c(F)c2)CC1` (stereo not shown) [Example A29] the EC50 was 1090 nM.
Compound `CS(=O)(=O)N1CCC(c2cc(F)c(OC3CCN(Cc4cccc(C(F)(F)F)c4)CC3)c(F)c2)CC1` [Example A45] has an EC50 of 48 nM.
For `CS(=O)(=O)N1CCC(c2cc(F)c(OC3CN(Cc4noc(C(F)(F)F)n4)C3)c(F)c2)CC1` [Example B23], the EC50 was 210 nM.
For `CC(C)c1ccc(CN2CC(Oc3ccc(N4CCN(C(=O)OCc5ccccc5)CC4=O)nc3)C2)cc1` [Example A2, Benzyl 4-(5-(1-(4-isopropylbenzyl)azetidin-3-yloxy)pyridin-2-yl)-3-oxopiperazine-1-carboxylate], the EC50 was 979 nM.
With `CC(C)(C)c1noc(CN2CC(Oc3c(F)cc(C4CCN(S(C)(=O)=O)CC4)cc3F)C2)n1` [Example B8] the EC50 was 286 nM.
`CS(=O)(=O)N1CCC(c2cc(F)c(OC3CCN(Cc4ccc(C(F)(F)F)cc4)C3)c(F)c2)CC1` (stereo not shown) [Example C1, 4-(3,5-Difluoro-4-(1-(4-(trifluoromethyl)benzyl)pyrrolidin-3-yloxy)phenyl)-1-(methylsulfonyl)piperidine] showed an EC50 of 144 nM.
With `CS(=O)(=O)N1CCC(c2cc(F)c(OC3CCN(Cc4nc(C(F)(F)F)no4)CC3)c(F)c2)CC1` [Example B1, 5-((4-(2,6-Difluoro-4-(1-(methylsulfonyl)piperidin-4-yl)phenoxy)piperidin-1-yl)methyl)-3-(trifluoromethyl)-1,2,4-oxadiazole] the EC50 was 7 nM.
`CS(=O)(=O)N1CCC(c2c(F)cc(OC3CCN(Cc4nc(C(F)(F)F)no4)CC3)cc2F)CC1` [Example B29] was tested, and the EC50 was 50 nM.
`O=S(=O)(C1CCNCC1)N1CCC(c2cc(F)c(OC3CN(Cc4ccc(C(F)(F)F)cc4)C3)c(F)c2)CC1` [Example A38] was tested, and the EC50 was 458 nM.
For `CS(=O)(=O)N1CCC(c2cc(F)c(OC3CCN(Cc4nc(C(F)(F)F)no4)CC3)cc2F)CC1` [Example B28], the EC50 was 5 nM.
Compound `COc1ccc(CN2CC(Oc3ccc(N4CCN(S(C)(=O)=O)CC4)nc3)C2)cc1` [Example A12] has an EC50 of 341 nM.
With `CS(=O)(=O)N1CCN(c2ncc(OC3CN(Cc4ccc(C(F)(F)F)cc4)C3)cn2)CC1` [Example A42] the EC50 was 149 nM.
In the case of `CC(C)c1ccc(CN2CC(Oc3cnc(N4CCN(S(C)(=O)=O)CC4)cn3)C2)cc1` [Example A11], the EC50 is reported as 22 nM.
`O=S(=O)(CCCO)N1CCC(c2cc(F)c(OC3CN(Cc4ccc(C(F)(F)F)cc4)C3)c(F)c2)CC1` [Example A41] gave an EC50 of 36 nM.
In the case of `CCCS(=O)(=O)N1CCN(c2ccc(OC3CN(Cc4ccc(C(F)(F)F)cc4)C3)cn2)CC1` [Example A21], the EC50 is reported as 39 nM.
Compound `CS(=O)(=O)N1CCC(c2cc(F)c(OC3CN(Cc4ncc(C(F)(F)F)cc4Cl)C3)c(F)c2)CC1` [Example A26] has an EC50 of 330 nM.
With `CC(C)(F)c1noc(CN2CCC(Oc3c(F)cc(C4CCN(S(C)(=O)=O)CC4)cc3F)CC2)n1` [Example B2, 5-((4-(2,6-difluoro-4-(1-(methylsulfonyl)piperidin-4-yl)phenoxy)piperidin-1-yl)methyl)-3-(2-fluoropropan-2-yl)-1,2,4-oxadiazole] the EC50 was 28 nM.
Work on `CS(=O)(=O)N1CCN(c2cc(F)c(OC3CN(Cc4ccc(C(F)(F)F)cc4)C3)c(F)c2)CC1` [Example A32] yielded an EC50 of 145 nM.
With `CS(=O)(=O)N1CCN(c2cnc(OC3CN(Cc4ccc(C(F)(F)F)cc4)C3)cn2)CC1` [Example A6, 2-(4-(methylsulfonyl)piperazin-1-yl)-5-(1-(4-(trifluoromethyl)benzyl)azetidin-3-yloxy)pyrazine] the EC50 was 69 nM.
`CS(=O)(=O)N1CCC(c2cc(F)c(OC3CCN(Cc4nc(C(F)F)no4)CC3)c(F)c2)CC1` [Example B5] was tested, and the EC50 was 49 nM.
Work on `CC(C)c1noc(CN2CC(Oc3c(F)cc(C4CCN(S(C)(=O)=O)CC4)cc3F)C2)n1` [Example B9] yielded an EC50 of 76 nM.
With `CC1(Oc2c(F)cc(C3CCN(S(C)(=O)=O)CC3)cc2F)CN(Cc2ccc(C(F)(F)F)cc2)C1` [Example C3] the EC50 was 644 nM.
`CC(C)c1noc(CN2CCC(Oc3c(F)cc(C4CCN(S(C)(=O)=O)CC4)cc3F)CC2)n1` [Example B24] gave an EC50 of 6 nM.
With `CC(F)(F)c1noc(CN2CC(Oc3c(F)cc(C4CCN(S(C)(=O)=O)CC4)cc3F)C2)n1` [Example B13] the EC50 was 108 nM.
For `CS(=O)(=O)N1CCC(c2cc(F)c(OC3CN(Cc4ccc(C5(F)COC5)cc4)C3)c(F)c2)CC1` [Example A28], the EC50 was 49 nM.
`CS(=O)(=O)N1CCN(c2ccc(OC3CN(Cc4ccc(C(F)(F)F)cc4)C3)cn2)C(=O)C1` [Example A17] showed an EC50 of 26 nM.
With `CS(=O)(=O)N1CCC(c2cc(F)c(OC3CN(Cc4ccc(C(F)(F)F)cc4)C3)c(F)c2)CC1` [Example A7, 4-(3,5-difluoro-4-(1-(4-(trifluoromethyl)benzyl)azetidin-3-yloxy)phenyl)-1-(methylsulfonyl)piperidineine] the EC50 was 13 nM.
With `CS(=O)(=O)N1CCC(c2cc(F)c(OC3CCN(Cc4noc(C(F)(F)F)n4)CC3)c(F)c2)CC1` [Example B22] the EC50 was 443 nM.
Work on `CS(=O)(=O)N1CCC(c2cc(F)c(OC3CCN(Cc4nc(C(F)(F)F)cs4)CC3)c(F)c2)CC1` [Example B16] yielded an EC50 of 9 nM.
For `CC(C)(C)OC(=O)N1CCC(S(=O)(=O)N2CCC(c3cc(F)c(OC4CN(Cc5ccc(C(F)(F)F)cc5)C4)c(F)c3)CC2)C1` (stereo not shown) [Example A39], the EC50 was 214 nM.
In the case of `CS(=O)(=O)N1CCN(c2cc(F)c(OC3CN(Cc4ccc(C(F)(F)F)cc4)C3)c(F)c2)C(=O)C1` [Example A33], the EC50 is reported as 331 nM.
Work on `CC(C)c1nc(CN2CC(Oc3c(F)cc(C4CCN(S(C)(=O)=O)CC4)cc3F)C2)no1` [Example B11] yielded an EC50 of 397 nM.
For `Cn1nc(C(F)(F)F)nc1CN1CCC(Oc2c(F)cc(C3CCN(S(C)(=O)=O)CC3)cc2F)CC1` [Example B20], the EC50 was 208 nM.
For `CS(=O)(=O)N1CC=C(c2cc(F)c(OC3CN(Cc4ccc(C(F)(F)F)cc4)C3)c(F)c2)CC1` [Example A34], the EC50 was 12 nM.
`CC(Cc1ccc(C(F)(F)F)cc1)N1CC(Oc2c(F)cc(C3CCN(S(C)(=O)=O)CC3)cc2F)C1` (stereo not shown) [Example A24] showed an EC50 of 177 nM.
`CC(C)(C)OC(=O)N1CCC(S(=O)(=O)N2CCC(c3cc(F)c(OC4CN(Cc5ccc(C(F)(F)F)cc5)C4)c(F)c3)CC2)CC1` [Example A37] was tested, and the EC50 was 325 nM.
`CCC(c1ccc(C(F)(F)F)cc1)N1CC(Oc2c(F)cc(C3CCN(S(C)(=O)=O)CC3)cc2F)C1` (stereo not shown) [Example A25] showed an EC50 of 246 nM.
In the case of `CS(=O)(=O)N1CCN(c2ccc(OC3CN(Cc4ccc(C(F)(F)F)cc4)C3)cn2)CC1` [Example A9], the EC50 is reported as 38 nM.
Compound `CC(C)c1ccc(CN2CC(Oc3ccc(N4CCN(S(C)(=O)=O)CC4)cc3)C2)cc1` [Example A22] has an EC50 of 116 nM.
With `CS(=O)(=O)N1CCC(c2cc(F)c(OC3CCN(Cc4ccc(C(F)(F)F)nc4)CC3)c(F)c2)CC1` [Example A44] the EC50 was 38 nM.
Compound `O=S(=O)(C1CCNC1)N1CCC(c2cc(F)c(OC3CN(Cc4ccc(C(F)(F)F)cc4)C3)c(F)c2)CC1` (stereo not shown) [Example A40] has an EC50 of 576 nM.
